According to US20240207264A1, “PHARMACEUTICAL COMPOSITIONS COMPRISING INHIBITORS OF THE ANDROGEN RECEPTOR AND USES THEREOF” (ESSA PHARMA INC., priority 2021, published 2024):
Entries after “also recorded” stand apart in the source; their conditions may differ.

Key:
LNCaP95 = LNCaP95 prostate cancer xenograft model; type: in vivo; conditions: LNCaP95 (high level AR-V7), castrated male mice, 30 mg/kg, Solution, qd24
Procedure: (§1) Compound A's activity was measured in a variety of castrate-sensitive and castrate-resistant prostate cancer (CRPC) xenograft models (Table 32).

[1] = PK study, single PO dose, rats; type: in vivo; conditions: Sprague-Dawley, rat, plasma, male SD rats; for half-life: read-out: T½ (converted)
Procedure: A single PO dose of Compound A in three different formulations were administered to male Sprague-Dawley (SD) rats. Animals in Group 1 (Solution) received Compound A by oral gavage (PO) administration at 30 mg/kg, which was formulated in 4% NMP, 20% Capmul MCM, 21% Vitamin E TPGS, 55% PEG400. Animals in Group 2 (Suspension A) received Compound A by oral gavage (PO) administration at 100 mg/kg, which was formulated in SDD formulation with HPMCAS-H in 0.5% Methocel A4M in water. Mean plasma of Compound A was measured over 24-hour period after administration of Compound A (FIG. 15A) and PK parameters were determined (Table 29).

[2] = Phase I clinical study, PK; type: in vivo, human; conditions: patients; for Cmax / Tmax / AUC(0-t) / half-life: po, 200 mg/day; for AUC(0-t): read-out: AUC0-24; for half-life: read-out: t½ (converted)
Procedure: (§2) Phase I clinical research study of Compound A is studied as a treatment for patients with prostate cancer. All patients in the study receives Compound A at a once daily oral dose of 200 mg, 400 mg, 600 mg, 800 mg, or 1000 mg. Compound A in this study is provided as an SDD composition with HPMCAS-H. One cycle of treatment is 28 days of dosing.
PK parameters were measured from 4 subjects who were administered at 200 mg/day dose (Table 33). One patient discontinued before day 28 due to disease progression. 2 subjects received both abiraterone and enzalutamide prior treatments. 3 subjects received prior chemotherapy with taxanes.

[3] = PK study, single PO dose, mice; type: in vivo; conditions: male, CD-1, mouse, plasma, male CD-1 mice
Procedure: A single PO dose of Compound A in different doses in solid dispersion and at 30 mg/kg dose of Compound A in solution were administered to male CD-1 mice. Mean plasma of Compound A was measured over 24 hour period after administration of Compound A (FIG. 15C) and PK parameters were determined (Table 31).

[4] = Phase I clinical study, safety (DLT); type: in vivo, human
Procedure: as §2
The primary safety variable for Part 1a of the study is the incidence of protocol-defined dose limiting toxicity (DLT) during the DLT assessment period (first 28 days of dosing). The DLTs will be characterized by type, frequency, severity (as graded by National Cancer Institute Common Terminology Criteria for AEs [NCI CTCAE version 5.0]), timing, seriousness, and relationship to study drug.

VCaP tumors = experiment: VCaP prostate cancer xenograft model; type: in vivo, SCID Beige male mice; conditions: VCaP (amplified AR, some AR-V7), castrated male mice, Solution, qd24
LNCaP = LNCaP prostate cancer xenograft model; type: in vivo; conditions: LNCaP (AR FL), castrated male mice, 60 mg/kg, Solution, qd24
Procedure: as §1

22Rv1 = 22Rv1 prostate cancer xenograft model; type: in vivo; conditions: 22Rv1 (high level AR-V7), castrated male mice, 30 mg/kg, Solution, qd28
Procedure: as §1

[5] = PK study, single PO dose, dogs; type: in vivo; conditions: male, Beagle, dog, plasma; for half-life: read-out: T½ (converted)
Procedure: A single PO dose of Compound A in two different formulations were administered to male Beagle dogs. Mean plasma of Compound A was measured over 24-hour period after administration of Compound A (FIG. 15B) and PK parameters were determined (Table 30).

[6] = system: serum prostate specific antigen (PSA); experiment: Phase I clinical study, serum PSA; type: in vivo, human; conditions: 200 mg/day
Procedure: as §2
The primary efficacy variable for Part 1b of the study is the proportion of patients with a decline from baseline in prostate specific antigen (PSA) blood concentrations of ≥50% at any time point during daily dosing with Compound A,
The study is still on-going with other dose levels.

[7] = PO 30 mg/kg, Solution (4% NMP, 20% Capmul MCM, 21% Vitamin E TPGS, 55% PEG400)
[8] = PO 100 mg/kg, Suspension A (SDD with HPMCAS-H in 0.5% Methocel A4M in water)
[9] = male, human, in vivo, 200 mg/day oral SDD with HPMCAS-H, Day 1, N 4
[10] = male, human, in vivo, 200 mg/day oral SDD with HPMCAS-H, Day 28, N 3
[11] = 10 mg/kg, PO 10 mg/kg, Suspension A (SDD)
[12] = 30 mg/kg, PO 30 mg/kg, Solution (9% DMSO, 9% NMP, 27% solutol, 55% PEG400)
[13] = 30 mg/kg, PO 30 mg/kg, Suspension A (SDD)
[14] = 90 mg/kg, PO 90 mg/kg, Suspension A (SDD)
[15] = 270 mg/kg, PO 270 mg/kg, Suspension A (SDD)
[16] = 3 subjects, 28 day dosing at 200 mg/day
[17] = 50 mg/kg, PO 50 mg/kg, Solution (5% NMP, 20% vitamin E TPGS, 20% PEG 300, 0.5% SLS, 1.09% HPMCAS-H, 53.91% water)
[18] = 50 mg/kg, PO 50 mg/kg, Suspension A (SDD)
[19] = 100 mg/kg, PO 100 mg/kg, Suspension A (SDD)

CC(C)(c1ccc(OCc2ccnc(NS(C)(=O)=O)n2)cc1)c1cc(Cl)c(OCCCl)c(C#N)c1 [Compound A, N-(4-((4-(2-(3-chloro-4-(2-chloroethoxy)-5-cyanophenyl)propan-2-yl)phenoxy)methyl)pyrimidin-2-yl)methanesulfonamide]
TGI (Tumor Growth Inhibition) (LNCaP95): 54%
AUC(0-t) [1, 7]: 399 µg·h/mL
Cmax [1, 7]: 26800 ng/mL
Tmax [1, 7]: 9.3 h
half-life [1, 7]: 7.6 h
AUC(0-t) [1, 8]: 1180 µg·h/mL
Cmax [1, 8]: 89800 ng/mL
Tmax [1, 8]: 5.3 h
half-life [1, 8]: 6.2 h
Cmax [2, 9]: 3300 ng/mL
Tmax [2, 9]: 6.5 h
AUC(0-t) [2, 9]: 53.9 µg·h/mL
half-life [2, 9]: 22 h
Cmax [2, 10]: 8020 ng/mL
Tmax [2, 10]: 6.7 h
AUC(0-t) [2, 10]: 147 µg·h/mL
half-life [2, 10]: 24.8 h
concentration at 28 day ([2]; male, human, in vivo, 200 mg/day oral SDD with HPMCAS-H, Day 28, N 3, read-out: Clast): 4590 ng/mL
Clast ([2]; 200 mg/day oral SDD with HPMCAS-H, Day 1, N 4): 1,808 ng/mL
time to steady state ([2]; repeat QD dosing 200 mg/day): after day 8
AUC(0-inf) [3, 11]: 189 µg·h/mL
AUC(0-t) [3, 11]: 177 µg·h/mL
Cmax [3, 11]: 14300 ng/mL
AUC(0-inf) [3, 12]: 352 µg·h/mL
AUC(0-t) [3, 12]: 336 µg·h/mL
Cmax [3, 12]: 32000 ng/mL
AUC(0-inf) [3, 13]: 604 µg·h/mL
AUC(0-t) [3, 13]: 565 µg·h/mL
Cmax [3, 13]: 45900 ng/mL
AUC(0-inf) [3, 14]: 1700 µg·h/mL
AUC(0-t) [3, 14]: 1570 µg·h/mL
Cmax [3, 14]: 110000 ng/mL
AUC(0-inf) [3, 15]: 2690 µg·h/mL
AUC(0-t) [3, 15]: 2310 µg·h/mL
Cmax [3, 15]: 162000 ng/mL
tolerability ([4]; 200 mg/day): well tolerated
dose limiting toxicity (DLT) [4, 16]: No DLTs were observed; also recorded: No dose limiting toxicity was observed
severe adverse events [4, 16]: no severe adverse events were observed
TGI (Tumor Growth Inhibition) (VCaP tumors; 3 mg/kg): 54%
TGI (Tumor Growth Inhibition) (VCaP tumors; 10 mg/kg): 95%
TGI (Tumor Growth Inhibition) (VCaP tumors; 30 mg/kg): >100%
TGI (Tumor Growth Inhibition) (LNCaP): 93%
TGI (Tumor Growth Inhibition) (22Rv1): 48%
AUC(0-t) [5, 17]: 648 µg·h/mL
Cmax [5, 17]: 45800 ng/mL
Tmax [5, 17]: 2 h
half-life [5, 17]: 21.9 h
AUC(0-t) [5, 18]: 845 µg·h/mL
Cmax [5, 18]: 55500 ng/mL
Tmax [5, 18]: 3.3 h
half-life [5, 18]: 16.2 h
AUC(0-t) [5, 19]: 1450 µg·h/mL
Cmax [5, 19]: 80600 ng/mL
Tmax [5, 19]: 5.3 h
half-life [5, 19]: 24 h
Serum PSA level decline ([6]; one subject, after 3 cycles (12 weeks)): > 50%
Serum PSA levels ([6]; two other subjects): showed increase
